This test deals with PIK3CA (human) (UniProt P42336). Briefly: Inhibition of PIK3CA Kinase Activity.

Here are results for 56 compounds from the Kinase Knowledgebase extract (Sharma et al. 2016).

Sequence of PIK3CA (human) (P42336 whole entry, looked up): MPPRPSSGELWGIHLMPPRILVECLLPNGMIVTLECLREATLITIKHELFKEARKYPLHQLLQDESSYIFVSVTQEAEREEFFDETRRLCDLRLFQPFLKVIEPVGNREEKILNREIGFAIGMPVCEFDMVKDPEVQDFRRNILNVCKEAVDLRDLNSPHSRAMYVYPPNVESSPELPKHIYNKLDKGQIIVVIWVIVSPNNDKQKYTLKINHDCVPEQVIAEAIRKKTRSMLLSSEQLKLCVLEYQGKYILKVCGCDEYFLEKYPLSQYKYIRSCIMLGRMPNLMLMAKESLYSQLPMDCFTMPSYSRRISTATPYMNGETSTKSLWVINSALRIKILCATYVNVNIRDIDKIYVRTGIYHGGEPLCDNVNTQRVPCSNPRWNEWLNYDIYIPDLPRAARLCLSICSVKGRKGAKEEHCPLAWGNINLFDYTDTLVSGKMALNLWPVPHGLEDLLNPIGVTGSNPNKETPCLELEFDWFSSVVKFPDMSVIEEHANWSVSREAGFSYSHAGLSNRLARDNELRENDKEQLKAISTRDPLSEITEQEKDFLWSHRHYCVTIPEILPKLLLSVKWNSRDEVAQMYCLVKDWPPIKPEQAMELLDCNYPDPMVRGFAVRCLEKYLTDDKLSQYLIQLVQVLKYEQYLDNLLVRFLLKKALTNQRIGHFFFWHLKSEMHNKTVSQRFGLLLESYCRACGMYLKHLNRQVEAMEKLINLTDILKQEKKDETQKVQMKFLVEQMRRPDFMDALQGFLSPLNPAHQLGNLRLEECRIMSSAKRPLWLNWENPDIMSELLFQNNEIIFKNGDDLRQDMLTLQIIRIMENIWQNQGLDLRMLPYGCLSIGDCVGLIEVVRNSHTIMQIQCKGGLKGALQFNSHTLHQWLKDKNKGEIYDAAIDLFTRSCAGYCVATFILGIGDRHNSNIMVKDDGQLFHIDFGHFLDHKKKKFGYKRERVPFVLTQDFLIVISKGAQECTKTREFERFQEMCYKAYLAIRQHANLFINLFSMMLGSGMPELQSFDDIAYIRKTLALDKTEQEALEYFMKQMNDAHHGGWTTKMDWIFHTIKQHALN

Usually IC50 stands for the concentration that gives 50% inhibition. On to `CC1(C)CCc2ncnc(N3CCOc4ccc(-c5cnc(N)c(S(=O)(=O)NCC6(N)CC6)c5)cc4C3)c2C1`, for which the IC50 fell in the range of 50 to 250 nM.

`Cn1ccc2cc(-c3ccc4c(c3)CN(c3ccnc5ccccc35)CCO4)cnc21` came in with an IC50 of 250 to 1000 nM.

Regarding `Cc1ncnc(N2CCOc3ccc(-c4ccc5nc(N)[nH]c5c4)cc3C2)c1Cc1ccc(F)cc1`, the IC50 lay within 10 to 50 nM.

On to `CC1=Cc2ncnc(N3CCOc4ccc(-c5cnc(N)c(S(=O)(=O)NC[C@H]6CCN(C)C6)c5)cc4C3)c2CC1(C)C`, for which the IC50 was in the range of 10 to 50 nM.

Consider `CC1=CC(C)(C)Cc2c1ncnc2N1CCOc2ccc(-c3cnc4nc(C)[nH]c4c3)cc2C1`, for which the IC50 was 10 to 50 nM.

With `CCc1ncnc(N2CCOc3ccc(-c4cnc5nc(C)[nH]c5c4)cc3C2)c1C`, the IC50 lay within 50 to 250 nM.

The compound `COc1cc2ncnc(N3CCOc4ccc(-c5ccc6nc(C)[nH]c6c5)cc4C3)c2cc1Cl` gave an IC50 of 10 to 50 nM.

`Cc1nc2ccc(-c3ccc4c(c3)CN(c3ncnc(C)c3Cc3cc(F)cc(F)c3)CCO4)cc2[nH]1`: the IC50 is 10 to 50 nM.

In the case of `CCNc1nc2ccc(-c3ccc4c(c3)CN(c3ncnc(Nc5ccccc5)c3C)CCO4)cc2[nH]1`, the IC50 was 10 to 50 nM.

In turn, `CC1(C)CCc2ncnc(N3CCOc4ccc(-c5cnc(N)c(S(=O)(=O)NC6CNC6)c5)cc4C3)c2C1` gave an IC50 of 10 to 50 nM.

Consider `CC1(C)CCc2ncnc(N3CCOc4ccc(-c5cnc(N)c(S(=O)(=O)NCCN)c5)cc4C3)c2C1`, for which the IC50 fell in the range of 10 to 50 nM.

In turn, `COc1cc2ncnc(N3CCOc4ccc(-c5cnc6nc(N)[nH]c6c5)cc4C3)c2cc1OC` yielded an IC50 not above 10 nM.

For the compound `CC1(C)CCc2ncnc(N3CCOc4ccc(-c5cnc(Cl)c(CS(C)(=O)=O)c5)cc4C3)c2C1`, the IC50 lay within 250 to 1000 nM.

`COC(=O)Nc1nc2ncc(-c3ccc4c(c3)CN(c3nc(CN(C)C)nc5c3CC(C)(C)CC5)CCO4)cc2[nH]1` registered an IC50 not above 10 nM.

The compound `COc1ccc2c(N3CCOc4ccc(-c5cnc(N)c([S+]([O-])C[C@@H](C)CO)c5)cc4C3)ncnc2c1` (stereo partly specified) had a concentration for half-maximal inhibition (IC50) of 10 to 50 nM.

The compound `CC1(C)CCc2ncnc(N3CCOc4ccc(-c5cnc(Cl)c(S(=O)(=O)N6CC[C@H](N)C6)c5)cc4C3)c2C1` showed an IC50 of 250 to 1000 nM.

As for `CN(C)c1ncc(-c2ccc3c(c2)CN(c2ncnc4c2CC(C)(C)CC4)CCO3)cc1NS(C)(=O)=O`, the IC50 was 10 to 50 nM.

Regarding `CCCc1nc2ccc(-c3ccc4c(c3)CN(c3ccnc5ccccc35)CCO4)cc2[nH]1`, the IC50 was in the range of 50 to 250 nM.

Regarding `Cc1nc2cc(-c3ccc4c(c3)CN(c3nc(CN(C)C)nc(C)c3C(C)C)CCO4)cnc2[nH]1`, the concentration for half-maximal inhibition (IC50) is not above 10 nM.

Compound `CC(=O)OCc1nc(C)c(C(C)C)c(N2CCOc3ccc(-c4ccc5nc(C)[nH]c5c4)cc3C2)n1` yielded an IC50 of 50 to 250 nM.

In turn, `Cc1nc2c(c(N3CCOc4ccc(-c5cnc6nc(C)[nH]c6c5)cc4C3)n1)CC(C)CC2` (stereo unspecified) returned an IC50 of 10 to 50 nM.

Take `Cc1nc2ccc(-c3ccc4c(c3)CN(c3ncnc(C)c3Cc3cccc(Cl)c3)CCO4)cc2[nH]1`: the IC50 fell in the range of 10 to 50 nM.

The compound `CC1(C)CCc2ncnc(N3CCOc4ccc(-c5cnc(N)c(S(=O)(=O)N6CC(C)(N)C6)c5)cc4C3)c2C1` gave an IC50 of 10 to 50 nM.

Turning to `CCc1ncnc(N2CCOc3ccc(-c4ccc5nc(C)[nH]c5c4)cc3C2)c1CC`, the IC50 lay in the range of 50 to 250 nM.

In the case of `Cc1cccc(Cl)c1S(=O)(=O)Nc1cc(-c2ccc3c(c2)CN(c2ncnc4c2CC(C)(C)CC4)CCO3)cnc1Cl`, the IC50 lay within 50 to 250 nM.

`Cc1nc2ncc(-c3ccc4c(c3)CN(c3ncnc5c3CC[C@@H](C)C5)CCO4)cc2[nH]1` showed an IC50 of 50 to 250 nM.

As for `CCN(C)Cc1nc2c(c(N3CCOc4ccc(-c5cnc6nc(C)[nH]c6c5)cc4C3)n1)CC(C)(C)CC2`, the IC50 was not above 10 nM.

Turning to `C=CCc1c(C)nc(CN(C)C)nc1N1CCOc2ccc(-c3cnc4sc(N)nc4c3)cc2C1`, the IC50 was not above 10 nM.

As for `Cc1nc2ccc(-c3ccc4c(c3)CN(c3ncnc5cc(C(F)(F)F)ccc35)CCO4)cc2[nH]1`, the IC50 lay in the range of 50 to 250 nM.

`CC1(C)CCc2ncnc(N3CCOc4ccc(-c5cnc(N)c(S(=O)(=O)N6CCC(O)C6)c5)cc4C3)c2C1` (stereo unspecified) gave an IC50 of 10 to 50 nM.

On to `Cc1ncnc(N2CCOc3ccc(-c4cncs4)cc3C2)c1Cc1ccc(F)cc1`, for which the IC50 lay within 250 to 1000 nM.

`CN(C)Cc1nc2c(c(N3CCOc4ccc(-c5ccc(N)nc5)cc4C3)n1)CC(C)(C)CC2` had an IC50 of 50 to 250 nM.

`Cc1nc2ccc(-c3ccc4c(c3)CN(c3ncnc5ccc(S(C)(=O)=O)cc35)CCO4)cc2[nH]1`: the IC50 is 250 to 1000 nM.

As to `CN(CCO)S(=O)(=O)c1cc(-c2ccc3c(c2)CN(c2ncnc4c2CC(C)(C)CC4)CCO3)cnc1N`, the IC50 was not above 10 nM.

`COc1ccc2c(N3CCOc4ccc(-c5ccc(N)nc5)cc4C3)nc(C)nc2c1` had an IC50 of 50 to 250 nM.

With `Nc1nc2ccc(-c3ccc4c(c3)CN(c3nc(-c5ccccc5)nc5ccccc35)CCO4)cc2[nH]1`, the IC50 lay in the range of 50 to 250 nM.

Consider `COc1ccc2c(N3CCOc4ccc(-c5ccc6nc(C)[nH]c6c5)cc4C3)nc(C)nc2c1`, for which the IC50 fell in the range of 10 to 50 nM.

For `Cc1nc2ccc(-c3ccc4c(c3)CN(c3ncnc5ccc(I)cc35)CCO4)cc2[nH]1`, the 50% inhibitory concentration (IC50) was 50 to 250 nM.

In turn, `CCNc1nc2ncc(-c3ccc4c(c3)CN(c3nc(C)nc5c3CC(C)(C)CC5)CCO4)cc2[nH]1` returned an IC50 not above 10 nM.

In turn, `CC(C)Nc1nc2ccc(-c3ccc4c(c3)CN(c3ccnc5ccccc35)CCO4)cc2[nH]1` registered an IC50 of 250 to 1000 nM.

For the compound `COc1ccc2c(N3CCOc4ccc(-c5cccc(C(=O)O)c5)cc4C3)nc(C)nc2c1`, the IC50 lay in the range of 250 to 1000 nM.

With `CC[C@H]1CCc2c(ncnc2N2CCOc3ccc(-c4cnc(N)c(S(=O)(=O)N5CCC(C)(N)C5)c4)cc3C2)C1` (stereo partly specified), the IC50 lay within 10 to 50 nM.

The compound `CCNc1nc2ccc(-c3ccc4c(c3)CN(c3ncnc5c3CC(C)(C)CC5)CCO4)cc2[nH]1` came in with an IC50 of 10 to 50 nM.

As to `Cc1nc2ccc(-c3ccc4c(c3)CN(c3ccnc5cc(F)ccc35)CCO4)cc2[nH]1`, the IC50 was not above 10 nM.

With `CC1(C)CCc2ncnc(N3CCOc4ccc(-c5cnc(Cl)c(NS(C)(=O)=O)c5)cc4C3)c2C1`, the IC50 was not above 10 nM.

In turn, `COC(=O)Nc1nc2ccc(-c3ccc4c(c3)CN(c3nccc5ccccc35)CCO4)cc2[nH]1` yielded an IC50 of 50 to 250 nM.

In the case of `CC1(C)CCc2ncnc(N3CCOc4ccc(-c5cnc(N)c(S(=O)(=O)N6CCC(N)CC6)c5)cc4C3)c2C1`, the IC50 is 10 to 50 nM.

`CN(C)Cc1nc2c(c(N3CCOc4ccc(-c5ccc6[nH]c(CF)nc6c5)cc4C3)n1)CC(C)(C)CC2` yielded an IC50 not above 10 nM.

Compound `Cc1ncnc(N2CCOc3ccc(-c4cnc5sc(N)nc5c4)cc3C2)c1Cc1ccc(F)cc1` returned a concentration for half-maximal inhibition (IC50) not above 10 nM.

`CC[C@H]1CCc2c(nc(C)nc2N2CCOc3ccc(-c4cnc(N)c(S(=O)(=O)N5CCC(C)(N)C5)c4)cc3C2)C1` (stereo partly specified) yielded an IC50 not above 10 nM.

As to `CC(O)CNS(=O)(=O)c1cc(-c2ccc3c(c2)CN(c2ncnc4c2CC(C)(C)CC4)CCO3)cnc1N` (stereo unspecified), the IC50 lay within 10 to 50 nM.

Compound `Cc1ncc(-c2ccc3c(c2)CN(c2ncnc4c2CC(C)(C)CC4)CCO3)cc1NS(C)(=O)=O` had an IC50 of 10 to 50 nM.

The compound `Cc1c(N2CCOc3ccc(-c4cnc5nc(C6CC6)[nH]c5c4)cc3C2)ncnc1N(C)[C@@H](C)c1ccccc1` displayed an IC50 of 250 to 1000 nM.

In turn, `Cc1nc2ccc(-c3ccc4c(c3)CN(c3nc(C(C)(C)O)nc5c3CC(C)(C)CC5)CCO4)cc2[nH]1` had an IC50 of 50 to 250 nM.

For `Cc1ncnc(N2CCOc3ccc(-c4cnc(N)cn4)cc3C2)c1Cc1ccc(F)cc1`, the IC50 fell in the range of 250 to 1000 nM.

`COCCOc1ccc(-c2ccc3c(c2)CN(c2nc(CN(C)C)nc4c2CC(C)(C)CC4)CCO3)cc1OC`: the IC50 lay within 50 to 250 nM.
